Structures are written as SMILES.

Data set [1] deals with Leishmania donovani. The data set can be described thus: GSK_TCAKS: pIC50 Leishmania donovani viability assay using fluorescence intensity. Assay plates (1536-well) were prepared by adding 30nL per well of compound. For single shot assay, the final compound concentration was 5uM. […] Briefly, eGFP LdBOB axenic amastigotes were harvested, fixed and counted in a CASY cell counter (Roche-Applied Science). A final concentration of 1.5 * 10^5 cells per well were prepared in amastigote media containing 500 U/mL penicillin/streptomycin (Invitrogen) and 6uL was dispensed to each experimental well using a Multidrop Combi dispenser (Thermo Scientific). 6uL of assay media was dispensed to control columns used as reference for 100% compound response. Following incubation for 72 h at 37C, 5% CO2, 2 uL of resazurin was added to each well at a final concentration of 0.5 mM in phosphate buffered saline (PBS) with IGEPAL (Sigma-Aldrich), 0.05% (v/v). Type of data set: functional, organism-based. (Resazurin is reduced to fluorescent resorufin, in cell work by metabolically active cells.)

Data set [2] concerns Trypanosoma cruzi. The data set can be described thus: (§1) GSK_TCAKS: pIC50 Trypanosoma cruzi Imaging: Amastigotes/Cell. […] Cells were then washed once with PBS before infection. T. cruzi trypomastigotes, collected at days 5 to 8 after infection from LLC-MK2 parasite infected cultures, were allowed to swim out for 4h at 37C from a centrifuged pellet (2,500 rpm/10 min/room temperature). Trypomastigotes were then collected and counted in a CASY Cell Counter. Trypomastigotes, in supplemented DMEM, were added to H9c2 cultures in a multiplicity of infection of 1 and incubated for 18 h. Cells were washed once with PBS before incubation of the infected H9c2 monolayer with trypsin (Life-Technologies) to detach cells from the flask. Cells were counted in a CASY Cell Counter using a 150 um capillary and their density set at 5 * 10^4 cells per mL in supplemented assay DMEM. Infected H9c2 were dispensed into 384-well poly-lysine coated assay plates at 50uL per well using a Multidrop Combi dispenser. After seeding them, the plates were incubated at 37C, 5% CO2 for 72h. Cultures were then fixed and stained by addition of 50 uL of a solution containing 8% formaldehyde and 4 uM DRAQ5 DNA dye (BioStatus, UK) per well. […] Five images were collected per well for reliable statistical analysis. Automated image analysis was performed with a script developed on Acapella High Content Imaging and Analysis Software (PerkinElmer). Output: number of amastigotes per cell as infection level measurement. Type of data set: functional, organism-based, Rattus norvegicus. The conditions noted are these: H9c2, 4 h.

The subject of data set [3] is Trypanosoma cruzi. The description is as §1, with “H2C9” for “Trypanosoma cruzi”, “H9c2 Host Cardiomyocytes.” for “Amastigotes/Cell.”, “Number” for “number”, “H9c2 Host Cardiomyocytes nuclei to determine drug-related cytotoxicity.” for “amastigotes per cell as infection level measurement.”. Type of data set: functional, organism-based, Rattus norvegicus. The conditions noted are these: H9c2, 4 h.

Data set [4] relates to Trypanosoma cruzi. The data set can be described thus: GSK_TCAKS: pIC50 Trypanosoma cruzi Imaging: Infected Cells. […] Cells were then washed once with PBS before infection. T. cruzi trypomastigotes, collected at days 5 to 8 after infection from LLC-MK2 parasite infected cultures, were allowed to swim out for 4h at 37C from a centrifuged pellet (2,500 rpm/10 min/room temperature). Trypomastigotes were then collected and counted in a CASY Cell Counter. Trypomastigotes, in supplemented DMEM, were added to H9c2 cultures in a multiplicity of infection of 1 and incubated for 18 h. Cells were washed once with PBS before incubation of the infected H9c2 monolayer with trypsin (Life-Technologies) to detach cells from the flask. Cells were counted in a CASY Cell Counter using a 150 um capillary and their density set at 5 * 10^4 cells per mL in supplemented assay DMEM. Infected H9c2 were dispensed into 384-well poly-lysine coated assay plates at 50uL per well using a Multidrop Combi dispenser. After seeding them, the plates were incubated at 37C, 5% CO2 for 72h. Cultures were then fixed and stained by addition of 50 uL of a solution containing 8% formaldehyde and 4 uM DRAQ5 DNA dye (BioStatus, UK) per well. […] Five images were collected per well for reliable statistical analysis. Automated image analysis was performed with a script developed on Acapella High Content Imaging and Analysis Software (PerkinElmer). Output: percentage of infected cells per well as a second infection marker. In kind it is functional, organism-based, Rattus norvegicus. Conditions: H9c2, 4 h.

Data set [5] deals with Trypanosoma brucei brucei. The data set can be described thus: GSK_TCAKS: pIC50 Trypanosoma brucei viability assay using luminiscence. Assay plates (1536-well) were prepared. T. brucei cultures were harvested and counted in a CASY cell counter. A parasite suspension was prepared at a final concentration of 5 * 10^4 cells/mL in complete HMI9 medium and 6uL was dispensed to all wells containing compounds using a Multidrop Combi dispenser. 6uL of HMI9 media with 0.4% DMSO were dispensed to control columns. Plates were incubated for 24 h at 37C, 5% CO2 then tempered for 10 min at room temperature. ATP content was quantified by adding 4 uL of CellTiter-Glo Reagent (Promega) according to the manufacturer's instructions. Luminescence was measured using a ViewLux. Type of data set: functional, organism-based. Conditions: Lister 427, CASY. (Cellular ATP, detected with luciferase, serves as a proxy for viable cell number.)

Data set [6] concerns Trypanosoma brucei brucei. The data set is described as follows: GSK_TCAKS: pIC50 Trypanosoma brucei viability assay using fluorescence intensity. Assay plates (1536-well) were prepared by dispensing 25nL of compound solution per well using an Echo acoustic dispenser (Labcyte). In kind it is functional, organism-based. Conditions: Lister 427, 2 h.
The subject of data set [7] is Leishmania donovani. The data set can be described thus: GSK_TCAKS: pIC50 Leishmania donovani Imaging: THP-1 Host Macrophages. Assay plates (384-well) were prepared by adding 250nL of compound to each well. For single shot assay, the final compound concentration was 5 uM. […] Automated image analysis was performed with a script developed on Acapella High Content Imaging and Analysis Software (PerkinElmer). Output: THP-1 cell count were reported for each well. In kind it is functional, organism-based, Homo sapiens.

The test system of data set [8] is Trypanosoma cruzi. The data set can be described thus: GSK_TCAKS: pIC50 Trypanosoma cruzi viability assay using beta-GAL activity. This assay was run at single shot at 5uM compound concentration per well. The biological reagents consisted of NIH-3T3 host cells and trypomastigotes parasitic cells; both cell types were set to a 3.3 * 10^5 cells/mL dilution in assay DMEM by means of a CASY cell counter device using a 60um capillary. 6 uL of the mixture were dispensed per well (about 1 * 10^3 host-cells and 1 * 10^3 parasites) with a Multidrop Combi dispenser. […] In all wells, the percentage of DMSO never exceeded 0.5%. Plates incubated for four days at 37C, 5% CO2. The substrate used for the assay fluorescence intensity (FLINT) readout was resorufin-beta-D-galactopiranoside (Sigma-Aldrich) at 5uM per well. It was diluted in PBS supplemented with the soft detergent Igepal (Fluka). Type of data set: functional, organism-based, Mus musculus. Conditions: Tulahuen, NIH3T3.

A short description of data set [9]: GSK_TCAKS: pIC50 HepG2 human cell line viability assay using luminiscence. […] Seeding density was checked to ensure that new mono-layers were not more than 50% confluent at the time of harvesting. Cell suspension was added to 500 mL of the same medium at a final density of 1.2 * 10^5 cells/mL. This cell suspension was dispensed (25 uL, 3000 cells per well) into 384-well clear-bottom plates using a Multidrop Combi dispenser. Prior to addition of the cell suspension, the screening compounds (250 nL) were pre-dispensed into the plates with an Echo liquid handler. Plates were incubated for 48 h at 37C, 5% CO2. After incubation, plates equilibrated at room temperature for 30 min before proceeding to develop the luminescent signal. The signal developer, CellTiter-Glo Reagent, was allowed to equilibrate at room temperature for 30 min and added to the plates (25uL per well) using a Multidrop Combi dispenser. Plates were left for 10 min at room temperature for stabilization and then read using a ViewLux. In kind it is toxicity, cell-based.

Data set [10] deals with Sterol 14-alpha demethylase (Trypanosoma cruzi (strain CL Brener), UniProt Q7Z1V1). The data set can be described thus: GSK_TCAKS: pIC50 CYP51 from Trypanosoma cruzi. Type of data set: functional.
Data set [11] has as its system Leishmania donovani. The data set is described as follows: GSK_TCAKS: pIC50 Leishmania donovani Imaging: Infected Macrophages. Assay plates (384-well) were prepared by adding 250nL of compound to each well. For single shot assay, the final compound concentration was 5 uM. […] Automated image analysis was performed with a script developed on Acapella High Content Imaging and Analysis Software (PerkinElmer). Output: Percent of infected macrophage cells were reported for each well. Type of data set: functional, organism-based, Homo sapiens. The conditions noted are these: THP-1.

Data set [12] deals with Leishmania donovani. The data set can be described thus: GSK_TCAKS: pIC50 Leishmania donovani Imaging: Amastigotes/Macrophages. Assay plates (384-well) were prepared by adding 250nL of compound to each well. For single shot assay, the final compound concentration was 5 uM. […] Automated image analysis was performed with a script developed on Acapella High Content Imaging and Analysis Software (PerkinElmer). Output: Average number of amastigotes per macrophage cell were reported for each well. Type of data set: functional, organism-based, Homo sapiens. The conditions noted are these: THP-1.

Chain of Sterol 14-alpha demethylase (Q7Z1V1 whole entry): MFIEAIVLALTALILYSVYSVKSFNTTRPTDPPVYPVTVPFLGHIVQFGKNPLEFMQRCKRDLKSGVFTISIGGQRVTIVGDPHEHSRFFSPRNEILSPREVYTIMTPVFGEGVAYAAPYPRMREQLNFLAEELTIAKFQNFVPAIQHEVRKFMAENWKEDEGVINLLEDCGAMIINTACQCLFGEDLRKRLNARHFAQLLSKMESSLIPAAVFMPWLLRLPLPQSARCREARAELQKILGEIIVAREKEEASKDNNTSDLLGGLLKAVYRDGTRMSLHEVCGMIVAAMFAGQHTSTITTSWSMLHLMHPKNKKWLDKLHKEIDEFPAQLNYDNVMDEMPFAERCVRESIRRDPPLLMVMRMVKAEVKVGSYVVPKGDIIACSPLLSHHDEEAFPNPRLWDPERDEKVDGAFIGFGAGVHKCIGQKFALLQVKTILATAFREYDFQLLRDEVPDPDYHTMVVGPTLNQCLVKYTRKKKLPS

Broadly, the IC50 is the concentration at which inhibition is half-maximal. Consider `Cc1nn2c(O)c3c(nc2c1-c1ccc(F)cc1)CCCC3`, for which the IC50 in the data set on Leishmania donovani [1] was 1.26 µM; with Trypanosoma cruzi [2] it was 0.794 µM; in the data set on Trypanosoma cruzi [3] it was over 50.1 µM; in the data set with Trypanosoma cruzi [4] it was 2 µM; in data set [5], 0.631 µM; in data set [6], 0.398 µM. The half-inhibitory concentration (IC50) was over 50.1 µM in the data set on Leishmania donovani [7]; 1.58 µM in the data set with Trypanosoma cruzi [8]; over 100 µM in data set [10]; over 50.1 µM in the data set on Leishmania donovani [11]; over 50.1 µM in the data set on Leishmania donovani [12]. This compound had an IC50 at 48 h in data set [9] of over 100 µM.
For `c1ccc(Nc2nc3ccccc3[nH]2)nc1`, the IC50 with Leishmania donovani [1] was 25.1 µM; with Trypanosoma cruzi [2] it was 10 µM; in the data set on Trypanosoma cruzi [3], 10 µM; in the data set with Trypanosoma cruzi [4] it was 25.1 µM; in data set [5] it was 25.1 µM; in data set [6] it was 15.8 µM. The IC50 was 25.1 µM with Leishmania donovani [7]; 7.94 µM in the data set with Trypanosoma cruzi [8]; over 100 µM in [10]; 7.94 µM with Leishmania donovani [11]; 7.94 µM in the data set on Leishmania donovani [12]. Besides, in data set [9], the half-maximal inhibitory concentration (IC50) at 48 h is 79.4 µM.
Regarding `CN(CC1CCCO1)S(=O)(=O)c1ccc(C(=O)Nc2nc(-c3ccccn3)cs2)cc1` (stereo not given), the IC50 was 1.26 µM in the data set on Leishmania donovani [1]; 1.26 µM with Trypanosoma cruzi [2]; 20 µM with Trypanosoma cruzi [3]; 2 µM in the data set on Trypanosoma cruzi [4]; 0.631 µM in data set [5]; 0.501 µM in data set [6]. Moreover, the IC50 is 7.94 µM in the data set on Leishmania donovani [7]; 1.58 µM in the data set with Trypanosoma cruzi [8]; 7.94 µM in [10]; 6.31 µM with Leishmania donovani [11]; 3.16 µM in the data set with Leishmania donovani [12]. This compound also showed an IC50 at 48 h in data set [9] of 63.1 µM.
On to `Cc1cccc(Nc2nc(-c3ccccn3)cs2)n1`, for which the concentration for half-maximal inhibition (IC50) was 3.98 µM in the data set with Leishmania donovani [1]; 0.794 µM with Trypanosoma cruzi [2]; 0.631 µM in the data set on Trypanosoma cruzi [3]; 1 µM in the data set on Trypanosoma cruzi [4]; 0.501 µM in data set [5]; 1 µM in data set [6]. The IC50 in the data set with Leishmania donovani [7] was over 50.1 µM; with Trypanosoma cruzi [8], 0.631 µM; in data set [10] it was 20 µM; in the data set on Leishmania donovani [11], 3.16 µM; in the data set on Leishmania donovani [12], 2 µM. In addition, in data set [9], the IC50 at 48 h was 39.8 µM.
`COc1ccc(Nc2nc(-c3ccccn3)cs2)c(OC)c1`: the IC50 in the data set with Leishmania donovani [1] is 6.31 µM; in the data set with Trypanosoma cruzi [2], 5.01 µM; in the data set with Trypanosoma cruzi [3], 2 µM; in the data set with Trypanosoma cruzi [4], 7.94 µM; in data set [5] it was 25.1 µM; in data set [6], 20 µM. Also, the IC50 with Leishmania donovani [7] is over 50.1 µM; in the data set on Trypanosoma cruzi [8] it was 3.98 µM; in [10], 20 µM; in the data set with Leishmania donovani [11], 2.51 µM; with Leishmania donovani [12], 2 µM. In data set [9], this compound gave an IC50 at 48 h of over 100 µM.
